Data published in patent US20220133747A1, “ESTROGEN RECEPTOR INHIBITORS AND USES THEROF” (The Regents of the University of California, priority 2018, published 2022).
“Also recorded” adds a separate entry of the source.

Columns and labels:
[1] = clinic; cited from earlier work
STAT3 = test: Phosphorylated STAT3 in G-MDSC subpopulations, flow cytometry; format: cell-based, human; settings: 1 μM in normal medium with GM-CSF and IL6, 6 days
Procedure: Bone marrow cells from three breast cancer patients were incubated with GM-CSF and IL6 in the following groups: normal medium (contains estradiol) in the presence of vehicle (CON), 1 μM fulvestrant (FULV) or 1 μM S128. After 6 days, cells were subjected to flow cytometry using an antibody directed to phosphorylated STAT3 (p-STAT; 1).
FIGS. 22A-22B show expansion of MDSCs is dependent on estrogen signaling and reversed by antiestrogens. […] Retrospectively-collected BM cells from de-identified BC patients were purified by established methods including red blood cell lysis and Ficoll gradients and then incubated with GM-CSF and IL-6 for 6 days in either regular RPMI medium+15% FBS (NM) (contains estrogens), NM with antiestrogens (FULV or SERD128) or in phenol red-free medium with 15% charcoal coated-dextran treated FBS (EFM) (estrogen-depleted) with or without the addition of 100 nM estradiol-17β (EFM+E2). […]
Human myeloid-derived suppressor cells were expanded from bone marrow (BM) specimens of BC patients after standard Ficoll gradient purification and red blood cell lysis. […] After 6 days of culture, cells were harvested, stained with a 14 antibody panel including anti-phospho-STAT3 (pSTAT3) and analyzed by flow cytometry with an LSRII with a 5 lasers (UV, violet, blue, green-yellow and red). […]

ZR75 cells = test: Cell proliferation assay, ZR75; format: cell-based, human; settings: ZR75, 10 nM with 2 nM estradiol-17β, 48 hr
[2] = test system: 4T1 triple negative breast cancer cells; test: 4T1 cell proliferation in vitro, Incucyte live-cell confluence; format: cell-based, mouse; settings: 10, 100, 1000 nM, presence or absence of estradiol-17β, 5 days
Procedure: FIGS. 23A-23C show estrogen effects on ERα negative tumor growth in vitro and in vivo. […] Female 6-wk-old BALB/c mice, either ovariectomized (ovx) or sham-operated (intact), were inoculated s.c. with 2×10^5 4T1 TNBC cells. Tumor growth was then assessed every 3 days, with tumor volume calculated as V=(l×w×w)/2. ****P≤0.0001. […] 4T1 cells were grown in the presence (+E2) or absence (−E2) of estradiol-17β and increasing concentrations of SERD128 at 10 nM (128-10), 100 nM (128-100) or 1000 nM (128-1000). Cell proliferation was assessed using the Incucyte S3 Live-Cell Analysis system with pictures obtained every 4-6 hours. […] Tumors were measured every 3 days, and tumor volume was calculated as V=(W(2)×L)/2). **P<0,01, ****P<0.0001 as compared to control group. n=11-12.
MCF-7 and other selected BC cells were seeded in 96-well plates at […] in complete medium. […] Cell number and viability were determined by either cell counts or by colorimetric assays using the CELLTITER 96 AQUEOUS (Promega) assay or the cell proliferation ELISA BrdU assay (Roche) as per manufacturer's instructions. […] In selected experiments using the INCUCYTE™ Live Cell System (Essen Bioscience) as per the manufacturer's instructions, the proliferation of 4T1 cells maintained in a tissue culture incubator was monitored by using the NucLight Rapid Red Reagent for cell labeling in 6-well plates. […]

T47D cells = test: Cell proliferation assay, T47D; format: cell-based, human; settings: 10 nM with 2 nM estradiol-17β, 48 hr
MCF-7/HER2 cells = test: Cell proliferation assay, MCF-7 with HER2-overexpression; format: cell-based, human; settings: MCF-7/HER2, 10 nM with 2 nM estradiol-17β, 48 hr

## C[C@]12CC[C@@H]3c4ccc(O)cc4C[C@@H](CCCCCCCCC[S+]([O-])CCCC(F)(F)C(F)(F)F)[C@H]3[C@@H]1CC[C@@H]2O (stereo partly shown) [fulvestrant, reference compound]
[1]
  bioavailability: very low bioavailability

## C[C@]12C[C@H](Oc3ccc(N)c(C(F)(F)F)c3)[C@@H]3c4ccc(O)cc4CC[C@H]3[C@@H]1CC[C@@H]2O [SERD128, (8S,9S,11S,13S,14S,17S)-11-(4-Amino-3-(trifluoromethyl)phenoxy)-13-methyl-7,8,9,11,12,13,14,15,16,17-decahydro-6H-cyclopenta[a]phenanthrene-3,17-diol]
STAT3
  p-STAT3 median fluorescence intensity in G-MDSC: blocks phosphorylation/activation of STAT3; also recorded: especially effective in blocking the phosphorylation and activation of STAT3
STAT3; listed as S128
  p-STAT3 median fluorescence intensity in G-MDSC: blocks phosphorylation/activation of STAT3; also recorded: inhibits the STAT signaling pathway
ZR75 cells
  cell proliferation (% of estradiol-treated controls): significantly blocked proliferation; also recorded: significantly inhibited
[2]
  4T1 cell proliferation (phase object confluence): No significant differences were observed in cell proliferation; also recorded: did not elicit any significant effect on cell growth in vitro
T47D cells
  cell proliferation (% of estradiol-treated controls): significantly blocked proliferation; also recorded: significantly inhibited
MCF-7/HER2 cells
  cell proliferation (% of estradiol-treated controls): significantly blocked proliferation; also recorded: antiproliferative action
